Data as given in patent publication US20240124417A1, “COMPOUNDS USEFUL AS IMMUNOMODULATORS” (Bristol-Myers Squibb Company, priority 2019, published 2024).

target: T1, PD-1/PD-L1 (Homo sapiens, UniProt Q9NZQ7); experiment: PD-1/PD-L1 Homogenous Time-Resolved Fluorescence (HTRF) binding assay; conditions: PD-L1-His 10 nM, PD-1-Ig 20 nM
T1 construct: TVMV protease site linker (C); made in house; host or cells: HEK293T cells
In short: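 Time-resolved FRET read-out using Eu-cryptate anti-Ig (1 nM final) and APC anti-His (20 nM final). Tagged extracellular domains were used in BSA/Tween-20-supplemented dPBS, with compound pre-incubated 15 min with PD-L1-His (10 nM) before PD-1-Ig (20 nM) was added for 15 min. Other human pairs: PD-L2-His 5 nM with PD-1-Ig 20 nM; PD-L1-Ig 10 nM with CD80-His 100 nM.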

T1 sequence (Q9NZQ7 18-239): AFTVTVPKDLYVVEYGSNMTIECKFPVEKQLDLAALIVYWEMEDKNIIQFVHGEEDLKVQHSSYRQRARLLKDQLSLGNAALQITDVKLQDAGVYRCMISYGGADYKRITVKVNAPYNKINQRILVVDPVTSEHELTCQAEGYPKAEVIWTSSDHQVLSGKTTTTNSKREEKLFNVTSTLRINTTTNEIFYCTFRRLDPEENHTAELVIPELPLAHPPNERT

| SMILES | IC50 |
| --- | --- |
| CC(=O)NC1CCN(CCCOc2cccc(-c3cccc(COc4cc(OCc5cncc(C#N)c5)c(CNCc5nnn[nH]5)cc4Cl)c3C)c2C)CC1 [Example 1046, N-(1-(3-((3′-((4-((((1H-Tetrazol-5-yl)methyl)amino)methyl)-2-chloro-5-((5-cyanopyridin-3-yl)methoxy)phenoxy)methyl)-2,2′-dimethyl-[1,1′-biphenyl]-3-yl)oxy)propyl)piperidin-4-yl)acetamide] | 1.9 nM |
| Cc1c(COc2cc(OCc3cncc(C#N)c3)c(CN(C)Cc3nn(C)c4ccccc34)cc2Cl)cccc1-c1cccc(OCCCN2CC[C@@H](O)C2)c1C [Example 2562, (R)-5-((4-chloro-5-((3′-(3-(3-hydroxypyrrolidin-1-yl)propoxy)-2,2′-dimethyl-[1,1′-biphenyl]-3-yl)methoxy)-2-((methyl((1-methyl-1H-indazol-3-yl)methyl)amino)methyl)phenoxy)methyl)nicotinonitrile] | 9.5 nM |
| Cc1c(COc2cc(OCc3cncc(C#N)c3)c(CN(C)Cc3csc(N)n3)cc2Cl)cccc1-c1cccc(OCCCN2CC[C@@H](O)C2)c1C [Example 2521, (R)-5-((2-((((2-aminothiazol-4-yl)methyl)(methyl)amino)methyl)-4-chloro-5-((3′-(3-(3-hydroxypyrrolidin-1-yl)propoxy)-2,2′-dimethyl-[1,1′-biphenyl]-3-yl)methoxy)phenoxy)methyl)nicotinonitrile] | 0.7 nM |
| Cc1c(COc2cc(OCc3cncc(C#N)c3)c(CN(C)Cc3cccnn3)cc2Cl)cccc1-c1cccc(OCCCN2CC[C@@H](O)C2)c1C [Example 2031, (R)-5-((4-chloro-5-((3′-(3-(3-hydroxypyrrolidin-1-yl)propoxy)-2,2′-dimethyl-[1,1′-biphenyl]-3-yl)methoxy)-2-((methyl(pyridazin-3-ylmethyl)amino)methyl)phenoxy)methyl)nicotinonitrile] | 0.2 nM |

The remaining compounds from weak to strong by IC50, led by results:

| IC50 | SMILES |
| --- | --- |
| 6.3 nM | COc1cc(OCc2cccc(-c3cccc(OCC4CCCN(C)C4)c3Cl)c2C)c(Cl)cc1CNCc1ncc[nH]1 (stereo not drawn) [Example 2057, N-((1H-imidazol-2-yl)methyl)-1-(5-chloro-4-((2′-chloro-2-methyl-3′-((1-methylpiperidin-3-yl)methoxy)-[1,1′-biphenyl]-3-yl)methoxy)-2-methoxyphenyl)methanamine] |
| 6.1 nM | Cc1c(COc2cc(OCc3cncc(C#N)c3)c(CNCc3ncc4ccccn34)cc2Cl)cccc1-c1cccc(OCC2CCCN(C)C2)c1Cl (stereo not drawn) [Example 2623, 5-((4-chloro-5-((2′-chloro-2-methyl-3′-((1-methylpiperidin-3-yl)methoxy)-[1,1′-biphenyl]-3-yl)methoxy)-2-(((imidazo[1,5-a]pyridin-3-ylmethyl)amino)methyl)phenoxy)methyl)nicotinonitrile] |
| 2.8 nM | Cc1cc(CNCc2cc(Cl)c(OCc3cccc(-c4cccc(OCC5CCCN(C)C5)c4Cl)c3C)cc2OCc2cncc(C#N)c2)no1 (stereo not drawn) [Example 2575, 5-((4-chloro-5-((2′-chloro-2-methyl-3′-((1-methylpiperidin-3-yl)methoxy)-[1,1′-biphenyl]-3-yl)methoxy)-2-((((5-methylisoxazol-3-yl)methyl)amino)methyl)phenoxy)methyl)nicotinonitrile] |
| 2.7 nM | Cc1c(COc2cc(OCc3cncc(C#N)c3)c(CN(C)C3CCc4[nH]ncc4C3)cc2Cl)cccc1-c1cccc(OCCCN2CC[C@@H](O)C2)c1C (stereo partly drawn) [Example 2564, 5-((4-chloro-5-((3′-(3-((R)-3-hydroxypyrrolidin-1-yl)propoxy)-2,2′-dimethyl-[1,1′-biphenyl]-3-yl)methoxy)-2-((methyl(4,5,6,7-tetrahydro-1H-indazol-5-yl)amino)methyl)phenoxy)methyl)nicotinonitrile] |
| 2.5 nM | Cc1c(COc2cc(OCc3cncc(C#N)c3)c(CN3CCCC(c4cc[nH]n4)C3)cc2Cl)cccc1-c1cccc(OCCCN2CC[C@@H](O)C2)c1C (stereo partly drawn) [Example 2568, 5-((2-((3-(1H-pyrazol-3-yl)piperidin-1-yl)methyl)-4-chloro-5-((3′-(3-((R)-3-hydroxypyrrolidin-1-yl)propoxy)-2,2′-dimethyl-[1,1′-biphenyl]-3-yl)methoxy)phenoxy)methyl)nicotinonitrile] |
